# In ChEMBL document CHEMBL3885881, “DrugMatrix”:
# “And” between values parts separate entries of the source, which are not always exact repeats. Equal entries are not always repeated.
# Organism: Rattus norvegicus
# Test: DrugMatrix - Regimen: Daily Repeat
# Format: toxicity, organism-based, Sprague-Dawley
# Set-up: regimen Daily Repeat, gender Male, age 6-8 weeks
# Conditions: in vivo, po, route oral GAVAGE, vehicle .5 % CMC; for BASOPHIL / EOSINOPHIL / ERYTHROCYTE COUNT / HEMATOCRIT / HEMOGLOBIN / LEUKOCYTE COUNT / LYMPHOCYTE / MEAN CORPUSCULAR HEMOGLOBIN / MEAN CORPUSCULAR HEMOGLOBIN CONCENTRATION / MEAN CORPUSCULAR VOLUME / MONOCYTE / NEUTROPHIL / PLATELET COUNT / ABSOLUTE BASOPHIL / ABSOLUTE EOSINOPHIL / ABSOLUTE LYMPHOCYTE / ABSOLUTE MONOCYTE / ABSOLUTE SEGMENTED NEUTROPHIL: tissue Blood; for ALANINE AMINOTRANSFERASE / ALBUMIN / ALKALINE PHOSPHATASE / ASPARTATE AMINOTRANSFERASE / BLOOD UREA NITROGEN / CHLORIDE / CHOLESTEROL / CREATINE PHOSPHOKINASE / CREATININE / GLUCOSE / PHOSPHORUS / POTASSIUM / SODIUM / TOTAL BILIRUBIN / TOTAL PROTEIN / LACTATE DEHYDROGENASE / LIPASE / URIC ACID: tissue Plasma
# [1] = 0 mg/kg, 72 h, dose level Control, time 3 day
# [2] = 0 mg/kg, 120 h, dose level Control, time 5 day
# [3] = 0 mg/kg, 2184 h, dose level Control, time 91 day
# [4] = 0 mg/kg, […], dose level Control, time 28 day
# [5] = 80 mg/kg, 120 h, dose level Low, time 5 day
# [6] = 80 mg/kg, 2184 h, dose level Low, time 91 day
compound,measurement,setting,value
O=c1cc(-c2ccccc2)oc2ccc3ccccc3c12 [BETA-NAPHTHOFLAVONE],BASOPHIL,[1],0.52%
same,EOSINOPHIL,[1],0.48%
same,ERYTHROCYTE COUNT,[1],6.68 x10E6/uL
same,HEMATOCRIT,[1],43.07%
same,HEMOGLOBIN,[1],13.48 G/DL
same,LEUKOCYTE COUNT,[1],11.41 x10E3/uL
same,LYMPHOCYTE,[1],80.78%
same,MEAN CORPUSCULAR HEMOGLOBIN,[1],20.2 pg
same,MEAN CORPUSCULAR HEMOGLOBIN CONCENTRATION,[1],31.32 G/DL
same,MEAN CORPUSCULAR VOLUME,[1],64.45 fL
same,MONOCYTE,[1],2.23%
same,NEUTROPHIL,[1],14.73%
same,PLATELET COUNT,[1],1225.83 x10E3/uL
same,ALANINE AMINOTRANSFERASE,[1],44.5 u/L
same,ALBUMIN,[1],3.62 G/DL
same,ALKALINE PHOSPHATASE,[1],404.5 u/L
same,ASPARTATE AMINOTRANSFERASE,[1],71.67 u/L
same,BLOOD UREA NITROGEN,[1],15 mg/dL
same,CHLORIDE,[1],103 MEQ/L
same,CHOLESTEROL,[1],96.83 mg/dL
same,CREATINE PHOSPHOKINASE,[1],236 u/L
same,CREATININE,[1],0.43 mg/dL
same,GLUCOSE,[1],186.83 mg/dL
same,PHOSPHORUS,[1],12.67 mg/dL
same,POTASSIUM,[1],7.1 MEQ/L
same,SODIUM,[1],147.33 MEQ/L
same,TOTAL BILIRUBIN,[1],0.52 mg/dL
same,TOTAL PROTEIN,[1],6.18 G/DL
same,ABSOLUTE BASOPHIL,[2],92 cells/µL
same,ABSOLUTE EOSINOPHIL,[2],52 cells/µL
same,ABSOLUTE LYMPHOCYTE,[2],6560 cells/µL
same,ABSOLUTE MONOCYTE,[2],160 cells/µL
same,ABSOLUTE SEGMENTED NEUTROPHIL,[2],1130 cells/µL
same,BASOPHIL,[2],1.14% and 0.92%
same,EOSINOPHIL,[2],0.68% and 0.43%
same,ERYTHROCYTE COUNT,[2],7.51 x10E6/uL and 7.03 x10E6/uL
same,HEMATOCRIT,[2],46.04% and 46.55%
same,HEMOGLOBIN,[2],15.62 G/DL and 14.32 G/DL
same,LEUKOCYTE COUNT,[2],8.03 x10E3/uL and 12.22 x10E3/uL
same,LYMPHOCYTE,[2],81.54% and 82.65%
same,MEAN CORPUSCULAR HEMOGLOBIN,[2],20.84 pg and 20.35 pg
same,MEAN CORPUSCULAR HEMOGLOBIN CONCENTRATION,[2],33.94 G/DL and 30.77 G/DL
same,MEAN CORPUSCULAR VOLUME,[2],61.42 fL and 66.28 fL
same,MONOCYTE,[2],2% and 2.28%
same,NEUTROPHIL,[2],14.24% and 12.73%
same,PLATELET COUNT,[2],1427.2 x10E3/uL and 1268.67 x10E3/uL
same,ALANINE AMINOTRANSFERASE,[2],35.6 u/L and 44.5 u/L
same,ALBUMIN,[2],3.64 G/DL and 3.73 G/DL
same,ALKALINE PHOSPHATASE,[2],233 u/L and 340.83 u/L
same,ASPARTATE AMINOTRANSFERASE,[2],81 u/L and 66.5 u/L
same,BLOOD UREA NITROGEN,[2],12 mg/dL and 13.33 mg/dL
same,CHLORIDE,[2],109.4 MEQ/L and 102.17 MEQ/L
same,CHOLESTEROL,[2],47.6 mg/dL and 82.17 mg/dL
same,CREATINE PHOSPHOKINASE,[2],183.2 u/L and 146.67 u/L
same,CREATININE,[2],0.4 mg/dL and 0.35 mg/dL
same,GLUCOSE,[2],134.6 mg/dL and 186.17 mg/dL
same,LACTATE DEHYDROGENASE,[2],89.4 u/L
same,LIPASE,[2],17.2 u/L
same,PHOSPHORUS,[2],13.02 mg/dL and 11.83 mg/dL
same,POTASSIUM,[2],7 MEQ/L and 6.47 MEQ/L
same,SODIUM,[2],149.6 MEQ/L and 148.83 MEQ/L
same,TOTAL PROTEIN,[2],6.06 G/DL and 6.27 G/DL
same,URIC ACID,[2],1.04 mg/dL
same,ABSOLUTE BASOPHIL,[3],130 cells/µL
same,ABSOLUTE EOSINOPHIL,[3],70 cells/µL
same,ABSOLUTE LYMPHOCYTE,[3],8670 cells/µL
same,ABSOLUTE MONOCYTE,[3],160 cells/µL
same,ABSOLUTE SEGMENTED NEUTROPHIL,[3],1530 cells/µL
same,BASOPHIL,[3],1.13%
same,EOSINOPHIL,[3],0.66%
same,ERYTHROCYTE COUNT,[3],9.13 x10E6/uL
same,HEMATOCRIT,[3],48.47%
same,HEMOGLOBIN,[3],16.56 G/DL
same,LEUKOCYTE COUNT,[3],10.5 x10E3/uL
same,LYMPHOCYTE,[3],81.63%
same,MEAN CORPUSCULAR HEMOGLOBIN,[3],18.16 pg
same,MEAN CORPUSCULAR HEMOGLOBIN CONCENTRATION,[3],34.14 G/DL
same,MEAN CORPUSCULAR VOLUME,[3],53.14 fL
same,MONOCYTE,[3],1.53%
same,NEUTROPHIL,[3],14.71%
same,PLATELET COUNT,[3],1280.22 x10E3/uL
same,ALANINE AMINOTRANSFERASE,[3],28.89 u/L
same,ALBUMIN,[3],3.69 G/DL
same,ALKALINE PHOSPHATASE,[3],101.11 u/L
same,ASPARTATE AMINOTRANSFERASE,[3],70.67 u/L
same,BLOOD UREA NITROGEN,[3],16.78 mg/dL
same,CHLORIDE,[3],104.56 MEQ/L
same,CHOLESTEROL,[3],58.78 mg/dL
same,CREATINE PHOSPHOKINASE,[3],91.22 u/L
same,CREATININE,[3],0.61 mg/dL
same,GLUCOSE,[3],142.33 mg/dL
same,LACTATE DEHYDROGENASE,[3],81.67 u/L
same,LIPASE,[3],13 u/L
same,PHOSPHORUS,[3],7.54 mg/dL
same,POTASSIUM,[3],6.27 MEQ/L
same,SODIUM,[3],149.89 MEQ/L
same,TOTAL BILIRUBIN,[3],0.19 mg/dL
same,TOTAL PROTEIN,[3],7.12 G/DL
same,URIC ACID,[3],0.97 mg/dL
same,ABSOLUTE BASOPHIL,[4],150 cells/µL
same,ABSOLUTE EOSINOPHIL,[4],54 cells/µL
same,ABSOLUTE LYMPHOCYTE,[4],8890 cells/µL
same,ABSOLUTE MONOCYTE,[4],190 cells/µL
same,ABSOLUTE SEGMENTED NEUTROPHIL,[4],2250 cells/µL
same,BASOPHIL,[4],1.26%
same,EOSINOPHIL,[4],0.46%
same,ERYTHROCYTE COUNT,[4],8.34 x10E6/uL
same,HEMATOCRIT,[4],48.66%
same,HEMOGLOBIN,[4],16.04 G/DL
same,LEUKOCYTE COUNT,[4],11.58 x10E3/uL
same,LYMPHOCYTE,[4],76.74%
same,MEAN CORPUSCULAR HEMOGLOBIN,[4],19.2 pg
same,MEAN CORPUSCULAR HEMOGLOBIN CONCENTRATION,[4],32.92 G/DL
same,MEAN CORPUSCULAR VOLUME,[4],58.32 fL
same,MONOCYTE,[4],1.76%
same,NEUTROPHIL,[4],19.44%
same,PLATELET COUNT,[4],1282.6 x10E3/uL
same,ALANINE AMINOTRANSFERASE,[4],27 u/L
same,ALBUMIN,[4],3.68 G/DL
same,ALKALINE PHOSPHATASE,[4],146.2 u/L
same,ASPARTATE AMINOTRANSFERASE,[4],66.6 u/L
same,BLOOD UREA NITROGEN,[4],12.4 mg/dL
same,CHLORIDE,[4],104.6 MEQ/L
same,CHOLESTEROL,[4],59.6 mg/dL
same,CREATINE PHOSPHOKINASE,[4],121.8 u/L
same,CREATININE,[4],0.6 mg/dL
same,GLUCOSE,[4],143 mg/dL
same,LACTATE DEHYDROGENASE,[4],87.8 u/L
same,LIPASE,[4],17.4 u/L
same,PHOSPHORUS,[4],8.68 mg/dL
same,POTASSIUM,[4],6.02 MEQ/L
same,SODIUM,[4],152.8 MEQ/L
same,TOTAL BILIRUBIN,[4],0.26 mg/dL
same,TOTAL PROTEIN,[4],6.92 G/DL
same,URIC ACID,[4],0.52 mg/dL
same,ABSOLUTE BASOPHIL,[5],80 cells/µL
same,ABSOLUTE EOSINOPHIL,[5],62 cells/µL
same,ABSOLUTE LYMPHOCYTE,[5],9510 cells/µL
same,ABSOLUTE MONOCYTE,[5],180 cells/µL
same,ABSOLUTE SEGMENTED NEUTROPHIL,[5],1430 cells/µL
same,BASOPHIL,[5],0.74%
same,EOSINOPHIL,[5],0.56%
same,ERYTHROCYTE COUNT,[5],7.55 x10E6/uL
same,HEMATOCRIT,[5],45.54%
same,HEMOGLOBIN,[5],15.6 G/DL
same,LEUKOCYTE COUNT,[5],11.31 x10E3/uL
same,LYMPHOCYTE,[5],84.24%
same,MEAN CORPUSCULAR HEMOGLOBIN,[5],20.68 pg
same,MEAN CORPUSCULAR HEMOGLOBIN CONCENTRATION,[5],34.26 G/DL
same,MEAN CORPUSCULAR VOLUME,[5],60.36 fL
same,MONOCYTE,[5],1.58%
same,NEUTROPHIL,[5],12.46%
same,PLATELET COUNT,[5],1331 x10E3/uL
same,ALANINE AMINOTRANSFERASE,[5],31.8 u/L
same,ALBUMIN,[5],3.5 G/DL
same,ALKALINE PHOSPHATASE,[5],221.2 u/L
same,ASPARTATE AMINOTRANSFERASE,[5],79.4 u/L
same,BLOOD UREA NITROGEN,[5],10.4 mg/dL
same,CHLORIDE,[5],108.8 MEQ/L
same,CHOLESTEROL,[5],59.4 mg/dL
same,CREATINE PHOSPHOKINASE,[5],166.8 u/L
same,CREATININE,[5],0.52 mg/dL
same,GLUCOSE,[5],110.6 mg/dL
same,LACTATE DEHYDROGENASE,[5],103.8 u/L
same,LIPASE,[5],24.4 u/L
same,PHOSPHORUS,[5],11.66 mg/dL
same,POTASSIUM,[5],6.5 MEQ/L
same,SODIUM,[5],151 MEQ/L
same,TOTAL BILIRUBIN,[5],0.2 mg/dL
same,TOTAL PROTEIN,[5],6.1 G/DL
same,URIC ACID,[5],0.72 mg/dL
same,ABSOLUTE BASOPHIL,[6],410 cells/µL
same,ABSOLUTE EOSINOPHIL,[6],110 cells/µL
same,ABSOLUTE LYMPHOCYTE,[6],11200 cells/µL
same,ABSOLUTE MONOCYTE,[6],290 cells/µL
same,ABSOLUTE SEGMENTED NEUTROPHIL,[6],3040 cells/µL
same,BASOPHIL,[6],2.71%
